Test results taken from patent US9586951B2 (FUJIFILM Corporation, priority 2013, dated 2017).
Where two headings read alike, the source gives them in different places.

Columns and labels:
ATM = biological target: T1, ATM (Homo sapiens, UniProt Q13315); test: ATM inhibition test (phosphorylation of Chk2 generated by ionizing radiation, AlphaScreen SureFire); assay type: cell-based; settings: phosphorylated Chk2 in NCI-H460 cells, ionizing radiation 8Gy, 1 hour after test compound treatment; read-out: ATM inhibitory activity
T1 construct: detecting phosphorylation of Chk2 in a human non-small cell lung cancer cell line NCI-H460 (ATCC company); host or cells: NCI-H460 human non-small cell lung cancer cells
Method in brief: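 Human NCI-H460 lung cancer cells were treated with compound for 1 h, then irradiated at 8Gy and incubated 1 h at 37° C. Phospho-Chk2 was quantified by AlphaScreen SureFire; inhibition % was normalised between irradiated untreated and non-irradiated untreated wells.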

[1] = test system: human non-small cell lung cancer cell line NCI-H460; test: Cell proliferation inhibition test by sensitivity-enhancing to ionizing radiation (Cell Titer Glo); assay type: cell-based; settings: concentration in which SER became 2, NCI-H460 cells, ionizing radiation 2 Gy, cultured 120 hour; for IC50: read-out: SER2
Method in brief: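 Cells seeded at 2×10^3 cells/mL in RPMI-1640 with 10% FBS; after 24 h, compound added (0.1% DMSO), and 30 min later half the plates irradiated at 2 Gy. After 120 hour at 37° C, viability by Cell Titer Glo luminescence; SER2 is the concentration giving SER of 2 by sigmoidal fit.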

T1 sequence (Q13315 whole entry): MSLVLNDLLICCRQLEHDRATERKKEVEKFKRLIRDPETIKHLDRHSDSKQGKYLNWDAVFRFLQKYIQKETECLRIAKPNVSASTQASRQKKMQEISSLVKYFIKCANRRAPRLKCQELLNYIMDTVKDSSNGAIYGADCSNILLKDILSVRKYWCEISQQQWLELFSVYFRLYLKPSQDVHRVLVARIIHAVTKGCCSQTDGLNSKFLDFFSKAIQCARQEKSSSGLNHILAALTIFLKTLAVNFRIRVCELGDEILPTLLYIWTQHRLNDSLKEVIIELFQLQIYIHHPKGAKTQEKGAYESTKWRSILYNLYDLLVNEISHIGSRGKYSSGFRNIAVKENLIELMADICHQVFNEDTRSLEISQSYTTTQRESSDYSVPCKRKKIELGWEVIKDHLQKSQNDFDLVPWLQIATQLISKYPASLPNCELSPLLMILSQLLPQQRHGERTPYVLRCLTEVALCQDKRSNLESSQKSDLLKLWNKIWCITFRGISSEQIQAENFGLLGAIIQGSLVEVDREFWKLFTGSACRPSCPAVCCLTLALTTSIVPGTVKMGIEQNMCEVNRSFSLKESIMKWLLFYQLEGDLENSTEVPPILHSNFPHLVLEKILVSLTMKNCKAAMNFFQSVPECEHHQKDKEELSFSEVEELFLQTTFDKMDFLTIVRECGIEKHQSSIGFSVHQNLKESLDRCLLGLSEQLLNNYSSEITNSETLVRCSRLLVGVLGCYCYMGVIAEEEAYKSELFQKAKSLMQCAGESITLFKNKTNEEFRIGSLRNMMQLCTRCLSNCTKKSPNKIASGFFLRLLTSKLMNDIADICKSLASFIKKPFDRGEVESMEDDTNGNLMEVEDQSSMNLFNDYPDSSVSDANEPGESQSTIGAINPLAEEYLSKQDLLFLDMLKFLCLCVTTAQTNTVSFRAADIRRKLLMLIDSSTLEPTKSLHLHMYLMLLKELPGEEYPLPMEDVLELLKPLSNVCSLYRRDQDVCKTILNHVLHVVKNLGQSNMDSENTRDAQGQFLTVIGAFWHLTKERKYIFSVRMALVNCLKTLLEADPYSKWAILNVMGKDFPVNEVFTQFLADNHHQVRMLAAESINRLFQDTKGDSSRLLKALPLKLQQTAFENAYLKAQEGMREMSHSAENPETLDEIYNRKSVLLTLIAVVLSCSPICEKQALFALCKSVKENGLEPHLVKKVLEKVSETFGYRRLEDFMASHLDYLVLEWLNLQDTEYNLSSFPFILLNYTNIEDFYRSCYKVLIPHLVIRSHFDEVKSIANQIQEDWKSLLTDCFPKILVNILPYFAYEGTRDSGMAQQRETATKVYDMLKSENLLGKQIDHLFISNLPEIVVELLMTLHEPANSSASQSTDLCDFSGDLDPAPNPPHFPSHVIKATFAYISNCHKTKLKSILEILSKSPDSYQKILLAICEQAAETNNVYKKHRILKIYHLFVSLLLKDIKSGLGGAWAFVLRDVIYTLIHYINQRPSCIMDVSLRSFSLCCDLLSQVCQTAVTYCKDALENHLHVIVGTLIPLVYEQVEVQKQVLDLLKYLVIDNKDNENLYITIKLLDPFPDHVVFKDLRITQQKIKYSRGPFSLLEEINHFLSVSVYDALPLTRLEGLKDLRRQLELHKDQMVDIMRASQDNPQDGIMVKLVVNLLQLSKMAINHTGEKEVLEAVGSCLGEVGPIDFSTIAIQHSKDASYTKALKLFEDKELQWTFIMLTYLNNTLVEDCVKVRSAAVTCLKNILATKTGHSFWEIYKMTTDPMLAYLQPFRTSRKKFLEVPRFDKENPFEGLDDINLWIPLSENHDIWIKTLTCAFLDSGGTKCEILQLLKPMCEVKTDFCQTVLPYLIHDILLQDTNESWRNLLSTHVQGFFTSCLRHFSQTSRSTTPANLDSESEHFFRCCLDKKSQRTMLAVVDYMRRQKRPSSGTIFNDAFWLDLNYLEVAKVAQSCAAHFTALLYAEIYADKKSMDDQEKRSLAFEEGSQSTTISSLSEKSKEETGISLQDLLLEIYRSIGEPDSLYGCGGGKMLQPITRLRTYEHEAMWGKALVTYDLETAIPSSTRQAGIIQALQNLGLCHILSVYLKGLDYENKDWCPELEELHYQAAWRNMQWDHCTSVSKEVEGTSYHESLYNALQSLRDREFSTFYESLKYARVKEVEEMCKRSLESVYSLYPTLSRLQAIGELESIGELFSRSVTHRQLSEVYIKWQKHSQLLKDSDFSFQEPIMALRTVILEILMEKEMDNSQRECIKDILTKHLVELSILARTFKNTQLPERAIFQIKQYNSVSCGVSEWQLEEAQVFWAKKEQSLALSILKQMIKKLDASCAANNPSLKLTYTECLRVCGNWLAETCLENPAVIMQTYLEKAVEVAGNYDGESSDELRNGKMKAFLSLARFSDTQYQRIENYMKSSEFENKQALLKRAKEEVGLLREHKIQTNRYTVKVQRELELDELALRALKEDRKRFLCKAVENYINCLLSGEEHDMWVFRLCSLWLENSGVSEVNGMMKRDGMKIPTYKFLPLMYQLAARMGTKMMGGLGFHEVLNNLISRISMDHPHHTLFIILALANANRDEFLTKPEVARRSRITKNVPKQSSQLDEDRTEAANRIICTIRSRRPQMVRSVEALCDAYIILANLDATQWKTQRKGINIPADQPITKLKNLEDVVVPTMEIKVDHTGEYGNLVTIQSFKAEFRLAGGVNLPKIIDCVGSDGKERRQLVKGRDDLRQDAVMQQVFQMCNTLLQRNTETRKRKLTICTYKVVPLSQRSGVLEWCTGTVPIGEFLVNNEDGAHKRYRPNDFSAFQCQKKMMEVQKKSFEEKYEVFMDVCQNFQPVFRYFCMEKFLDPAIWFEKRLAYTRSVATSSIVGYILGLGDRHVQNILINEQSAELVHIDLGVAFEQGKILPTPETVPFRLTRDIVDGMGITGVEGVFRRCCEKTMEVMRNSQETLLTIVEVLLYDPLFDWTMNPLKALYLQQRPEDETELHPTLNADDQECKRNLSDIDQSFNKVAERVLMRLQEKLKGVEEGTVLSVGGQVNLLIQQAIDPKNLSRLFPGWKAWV

Row | IC50 (ATM) | IC50 ([1]; Homo sapiens, NCI-H460, 120 h) | SMILES | SER2 (concentration at which the radiation sensitivity-enhancement ratio reaches 2) ([1]; Homo sapiens, NCI-H460, 120 h) | IC50 [1]
1 | < 100 nM |  | COc1cccnc1CNc1ccc2c(c1)Sc1cccc(-c3cc(N4CCOCC4)cc(=O)[nH]3)c1O2 [Example 4-4-22, 6-(8-(((3-Methoxypyridin-2-yl)methyl)amino)phenoxathiin-4-yl)-4-morpholino pyridin-2(1H)-one] | 500 to 2000 nM | 
2 | < 100 nM |  | N#Cc1cccc(CNc2ccc3c(c2)Cc2cccc(-c4cc(N5CCOCC5)cc(=O)[nH]4)c2O3)n1 [Example 2-14-13, 6-(((5-(4-Morpholino-6-oxo-1,6-dihydropyridin-2-yl)-9H-xanthen-2-yl)amino)methyl) picolinonitrile] | 100 to 500 nM | 
3 | < 100 nM |  | COc1ccc(CNc2ccc3c(c2)Sc2cccc(-c4cc(N5CCOCC5)cc(=O)[nH]4)c2O3)nc1 [Example 4-8-17, 6-(8-(((5-Methoxypyridin-2-yl)methyl)amino)phenoxathiin-4-yl)-4-morpholino pyridin-2(1H)-one] | 100 to 500 nM | 
4 | < 100 nM | 100 to 500 nM | O=c1cc(N2CCOCC2)cc(-c2cccc3c2Oc2ccc(NCc4cc(-c5cccnc5)ccn4)cc2C3)[nH]1 [Example 2-2-72] |  | 
5 | < 100 nM |  | Cc1cc(CNc2ccc3c(c2)Cc2cccc(-c4cc(N5CCOCC5)cc(=O)[nH]4)c2O3)ccn1 [Example 2-2-20, 6-(7-(((2-Methylpyridin-4-yl)methyl)amino)-9H-xanthen-4-yl)-4-morpholino pyridin-2(1H)-one] | 500 to 2000 nM | 
6 | 100 to 500 nM |  | Cc1cccc(C(C)Nc2ccc3c(c2)Cc2cccc(-c4cc(N5CCOCC5)cc(=O)[nH]4)c2O3)n1 (stereo not drawn) [Example 2-14-18, 6-(7-((1-(6-Methylpyridin-2-yl)ethyl)amino)-9H-xanthen-4-yl)-4-morpholino pyridin-2(1H)-one] | 100 to 500 nM | 
7 | 100 to 500 nM |  | Cc1ccc(C(Nc2ccc3c(c2)Sc2cccc(-c4cc(N5CCOCC5)cc(=O)[nH]4)c2S3)[C@H]2CN(C(=O)CN(C)C)CCO2)nc1 (single isomer, unassigned) [Example 10-1] | < 100 nM | 
8 | < 100 nM |  | O=c1cc(N2CCOCC2)cc(-c2cccc3c2Oc2ccc(NCc4cncc(N5CCC5)c4)cc2C3)[nH]1 [Example 2-2-69, 6-(7-(((5-(Azetidin-1-yl)pyridin-3-yl)methyl)amino)-9H-xanthen-4-yl)-4-morpholino pyridin-2(1H)-one] | 500 to 2000 nM | 
9 | < 100 nM |  | O=c1cc(N2CCOCC2)cc(-c2cccc3c2Oc2ccc(NCc4ccc(F)nc4)cc2S3)[nH]1 [Example 4-8-24, 6-(8-(((6-Fluoropyridin-3-yl)methyl)amino)phenoxathiin-4-yl)-4-morpholino pyridin-2(1H)-one] | 100 to 500 nM | 
10 | < 100 nM |  | O=c1cc(N2CCOCC2)cc(-c2cccc3c2Oc2ccc(NCc4ccnc(Br)c4)cc2C3)[nH]1 [Example 2-2-53, 6-(7-(((2-Bromopyridin-4-yl)methyl)amino)-9H-xanthen-4-yl)-4-morpholino pyridin-2 (1H)-one] | 500 to 2000 nM | 
11 | < 100 nM |  | O=c1cc(N2CCOCC2)cc(-c2cccc3c2Oc2ccc(NCc4cncc(Br)c4)cc2S3)[nH]1 [Example 4-8-22, 6-(8-(((5-Bromopyridin-3-yl)methyl)amino)phenoxathiin-4-yl)-4-morpholino pyridin-2(1H)-one] | 100 to 500 nM | 

The next lines start with the compound.

Row | SMILES | IC50 (ATM) | IC50 ([1]; Homo sapiens, NCI-H460, 120 h) | SER2 (concentration at which the radiation sensitivity-enhancement ratio reaches 2) ([1]; Homo sapiens, NCI-H460, 120 h) | IC50 [1]
12 | Cc1ccc(CNc2ccc3c(c2)Sc2cccc(-c4cc(N5CCOCC5)cc(=O)[nH]4)c2S3)nc1 [Example 1-12-13, 6-(7-(((5-Methylpyridin-2-yl)methyl)amino)thianthren-1-yl)-4-morpholino pyridin-2 (1H)-one] | < 100 nM |  | 100 to 500 nM | 
13 | COCCOCC(Nc1ccc2c(c1)Sc1cccc(-c3cc(N4CCOCC4)cc(=O)[nH]3)c1S2)c1ccc(C)cn1 (stereo not drawn) [Example 1-12-102, 6-(7-((2-(2-Methoxyethoxy)-1-(5-methylpyridin-2-yl)ethyl)amino)thianthren-1-yl)-4-morpholino pyridin-2(1H)-one] | < 100 nM |  | 100 to 500 nM | 
14 | COc1cccc(C(CO)Nc2ccc3c(c2)Sc2cccc(-c4cc(N5CCOCC5)cc(=O)[nH]4)c2S3)n1 (stereo not drawn) [Example 1-12-132, 6-(7-((2-Hydroxy-1-(6-methoxypyridin-2-yl)ethyl)amino)thianthren-1-yl)-4-morpholino pyridin-2(1H)-one] | < 100 nM |  | 100 to 500 nM | 
15 | Cc1ccc(C2(Nc3ccc4c(c3)Sc3cccc(-c5cc(N6CCOCC6)cc(=O)[nH]5)c3S4)COC2)nc1 [Example 1-50-4, 6-(7-((3-(5-Methylpyridin-2-yl)oxetan-3-yl)amino)thianthren-1-yl)-4-morpholino pyridin-2(1H)-one] | < 100 nM |  | 100 to 500 nM | 
16 | COC[C@H](CN1CCOC(C)(C)C1)Nc1ccc2c(c1)Sc1cccc(-c3cc(N4CCOCC4)cc(=O)[nH]3)c1S2 [Example 1-46-9, (S)-6-(7-((1-(2,2-Dimethylmorpholino)-3-methoxypropan-2-yl)amino)thianthren-1-yl)-4-morpholino pyridin-2(1H)-one] | < 100 nM |  | 100 to 500 nM | 
17 | O=c1cc(N2CCOCC2)cc(-c2cccc3c2Oc2ccc(NC4CCN(CCc5ccccc5)CC4)cc2S3)[nH]1 [Example 4-10, 4-Morpholino-6-(8-((1-phenethylpiperidin-4-yl)amino)phenoxathiin-4-yl)pyridin-2(1H)-one] | < 100 nM |  | 100 to 500 nM | 
18 | Cc1ccnc(C(C)Nc2ccc3c(c2)Sc2cccc(-c4cc(N5CCOCC5)cc(=O)[nH]4)c2S3)c1 (single isomer, unassigned) [Example 1-12-135-1, 6-(7-((1-(4-methylpyridin-2-yl)ethyl)amino)thianthren-1-yl)-4-morpholinopyridin-2(1H)-one] | < 100 nM |  | < 100 nM | 
19 | Cc1ccnc(C(CO)Nc2ccc3c(c2)Sc2cccc(-c4cc(N5CCOCC5)cc(=O)[nH]4)c2S3)c1 (stereo not drawn) [Example 1-12-65, 6-(7-((2-Hydroxy-1-(4-methylpyridin-2-yl)ethyl)amino)thianthren-1-yl)-4-morpholino pyridin-2(1H)-one] | < 100 nM |  | 100 to 500 nM | 
20 | CC(Nc1ccc2c(c1)Sc1cccc(-c3cc(N4CCOCC4)cc(=O)[nH]3)c1S2)c1ncc(CO)cn1 (single isomer, unassigned) [Example 1-12-142-1, 6-(7-((1-(5-(hydroxymethyl)pyrimidin-2-yl)ethyl)amino)thianthren-1-yl)-4-morpholinopyridin-2(1H)-one] | < 100 nM |  | 100 to 500 nM | 
21 | Cc1ccc(C(CCC2OCCCO2)Nc2ccc3c(c2)Sc2cccc(-c4cc(N5CCOCC5)cc(=O)[nH]4)c2S3)nc1 (stereo not drawn) [Example 1-12-131, 6-(7-((3-(1,3-Dioxan-2-yl)-1-(5-methylpyridin-2-yl)propyl)amino)thianthren-1-yl)-4-morpholino pyridin-2 (1H)-one] | < 100 nM |  | 100 to 500 nM | 
22 | Cc1nccc(C(C)Nc2ccc3c(c2)Sc2cccc(-c4cc(N5CCOCC5)cc(=O)[nH]4)c2S3)n1 (single isomer, unassigned) [Example 1-12-141-1, 6-(7-((1-(2-methylpyrimidin-4-yl)ethyl)amino)thianthren-1-yl)-4-morpholinopyridin-2(1H)-one] | < 100 nM |  | 100 to 500 nM | 
23 | O=c1cc(N2CCOCC2)cc(-c2cccc3c2Sc2ccc(N[C@@H]4CCCC[C@H]4N4CCOCC4)cc2S3)[nH]1 [Example 1-48-1, 4-Morpholino-6-(7-(((1R,2R)-2-morpholinocyclohexyl)amino)thianthren-1-yl)pyridin-2(1H)-one] | < 100 nM |  | 100 to 500 nM | 
24 | O=c1cc(N2CCOCC2)cc(-c2cccc3c2Oc2ccc(NCc4cncc(Cl)c4)cc2C3)[nH]1 [Example 2-2-12, 6-(7-(((5-Chloropyridin-3-yl)methyl)amino)-9H-xanthen-4-yl)-4-morpholino pyridin-2 (1H)-one] | < 100 nM |  | 100 to 500 nM | 
25 | CN1CCC(Nc2ccc3c(c2)Sc2cccc(-c4cc(N5CCOCC5)cc(=O)[nH]4)c2S3)CC1 [Example 1-44-5, 6-(7-((1-Methylpiperidin-4-yl)amino)thianthren-1-yl)-4-morpholino pyridin-2(1H)-one] | < 100 nM |  | 500 to 2000 nM | 
26 | Cc1ccc(C(Nc2ccc3c(c2)Sc2cccc(-c4cc(N5CCOCC5)cc(=O)[nH]4)c2S3)C2CC(N(C)C)C2)nc1 (single isomer, unassigned) [Example 1-50-8, 6-(7-(((3-(Dimethylamino)cyclobutyl)(5-methylpyridin-2-yl)methyl)amino)thianthren-1-yl)-4-morpholino pyridin-2(1H)-one] | < 100 nM |  | < 100 nM | 
27 | O=c1cc(N2CCOCC2)cc(-c2cccc3c2Sc2ccc(NCc4ccnc(Cl)c4)cc2S3)[nH]1 [Example 1-12-18] | < 100 nM |  |  | 100 to 500 nM
